What was measured:
[1] = system: Tyrosine-protein kinase ABL1 (Homo sapiens), P00519 [Y253F]; assay: Binding affinity to human phosphorylated ABL1 Y253F mutant (S229 to K512 residues) expressed in mammalian expression system assessed as residual binding level at 10 uM by Kinomescan method relative to control
[2] = biological target: Bone morphogenetic protein receptor type-1A (Homo sapiens) (UniProt P36894); assay: Binding affinity to wild-type human partial length BMPR1A (Q214 to I532 residues) expressed in bacterial expression system assessed as residual binding level at 10 uM by Kinomescan method relative to control
[3] = biological target: Tyrosine-protein kinase ZAP-70 (Homo sapiens) (UniProt P43403); assay: Binding affinity to wild-type human partial length ZAP70 (D20 to G299 residues) expressed in mammalian expression system assessed as residual binding level at 10 uM by Kinomescan method relative to control
[4] = system: Receptor-type tyrosine-protein kinase FLT3 (Homo sapiens), P36888 [D835V]; assay: Binding affinity to human partial length FLT3 D835V mutant (V592 to Y969 residues) expressed in bacterial expression system assessed as residual binding level at 10 uM by Kinomescan method relative to control
[5] = biological target: Proto-oncogene tyrosine-protein kinase ROS (Homo sapiens) (UniProt P08922); assay: Binding affinity to wild-type human partial length ROS1 (A1921 to N2240 residues) expressed in bacterial expression system assessed as residual binding level at 10 uM by Kinomescan method relative to control
[6] = biological target: Tyrosine-protein kinase HCK (Homo sapiens) (UniProt P08631); assay: Binding affinity to wild-type human full length HCK (M22 to P526 residues) expressed in bacterial expression system assessed as residual binding level at 10 uM by Kinomescan method relative to control
[7] = biological target: Calcium/calmodulin-dependent protein kinase type II subunit beta (Homo sapiens) (UniProt Q13554); assay: Binding affinity to wild-type human partial length CAMK2B (M1 to Q380 residues) expressed in bacterial expression system assessed as residual binding level at 10 uM by Kinomescan method relative to control
[8] = biological target: Bone morphogenetic protein receptor type-2 (Homo sapiens) (UniProt Q13873); assay: Binding affinity to wild-type human partial length BMPR2 (R179 to Q526 residues) expressed in mammalian expression system assessed as residual binding level at 10 uM by Kinomescan method relative to control
[9] = biological target: Serine/threonine-protein kinase pim-3 (Homo sapiens) (UniProt Q86V86); assay: Binding affinity to wild-type human partial length PIM3 (G16 to A317 residues) expressed in bacterial expression system assessed as residual binding level at 10 uM by Kinomescan method relative to control
[10] = biological target: Serine/threonine-protein kinase Nek9 (Homo sapiens) (UniProt Q8TD19); assay: Binding affinity to wild-type human partial length NEK9 (P32 to R328 residues) expressed in bacterial expression system assessed as residual binding level at 10 uM by Kinomescan method relative to control
[11] = biological target: Serine/threonine-protein kinase MRCK alpha (Homo sapiens) (UniProt Q5VT25); assay: Binding affinity to wild-type human partial length MRCKA (L57 to V418 residues) expressed in bacterial expression system assessed as residual binding level at 10 uM by Kinomescan method relative to control
[12] = biological target: Receptor-interacting serine/threonine-protein kinase 1 (Homo sapiens) (UniProt Q13546); assay: Binding affinity to wild-type human partial length RIPK1 (M1 to K305 residues) expressed in bacterial expression system assessed as residual binding level at 10 uM by Kinomescan method relative to control
[13] = biological target: Rhodopsin kinase GRK1 (Homo sapiens) (UniProt Q15835); assay: Binding affinity to wild-type human full length GRK1 (M1 to S563 residues) expressed in mammalian expression system assessed as residual binding level at 10 uM by Kinomescan method relative to control
[14] = biological target: Mitogen-activated protein kinase 7 (Homo sapiens) (UniProt Q13164); assay: Binding affinity to wild-type human partial length ERK5 (M1 to A409 residues) expressed in bacterial expression system assessed as residual binding level at 10 uM by Kinomescan method relative to control
[15] = system: Phosphatidylinositol 4,5-bisphosphate 3-kinase catalytic subunit alpha isoform (Homo sapiens), P42336 [M1043I]; assay: Binding affinity to human partial length PIK3CA M1043I mutant (R108 to N1068 residues) expressed in mammalian expression system assessed as residual binding level at 10 uM by Kinomescan method relative to control
[16] = biological target: Cyclin-dependent kinase 13 (Homo sapiens) (UniProt Q14004); assay: Binding affinity to wild-type human partial length CDC2L5 (H675 to S1054 residues) expressed in mammalian expression system assessed as residual binding level at 10 uM by Kinomescan method relative to control
[17] = biological target: Mitogen-activated protein kinase kinase kinase 13 (Homo sapiens) (UniProt O43283); assay: Binding affinity to wild-type human full length LZK (M1 to W966 residues) expressed in mammalian expression system assessed as residual binding level at 10 uM by Kinomescan method relative to control
[18] = biological target: Cyclin-dependent kinase 11B (Homo sapiens) (UniProt P21127); assay: Binding affinity to wild-type human partial length CDC2L1 (P353 to G692 residues) expressed in bacterial expression system assessed as residual binding level at 10 uM by Kinomescan method relative to control
[19] = biological target: Peripheral plasma membrane protein CASK (Homo sapiens) (UniProt O14936); assay: Binding affinity to wild-type human partial length CASK (M1 to H315 residues) expressed in mammalian expression system assessed as residual binding level at 10 uM by Kinomescan method relative to control
[20] = biological target: Leucine-rich repeat serine/threonine-protein kinase 2 (Homo sapiens) (UniProt Q5S007); assay: Binding affinity to wild-type human partial length LRRK2 (H970 to E2527 residues) expressed in mammalian expression system assessed as residual binding level at 10 uM by Kinomescan method relative to control
[21] = biological target: Serine/threonine-protein kinase Nek10 (Homo sapiens) (UniProt Q6ZWH5); assay: Binding affinity to wild-type human partial length NEK10 (L488 to R809 residues) expressed in mammalian expression system assessed as residual binding level at 10 uM by Kinomescan method relative to control
[22] = biological target: Mitogen-activated protein kinase kinase kinase 20 (Homo sapiens) (UniProt Q9NYL2); assay: Binding affinity to wild-type human partial length ZAK (M1 to L331 residues) expressed in bacterial expression system assessed as residual binding level at 10 uM by Kinomescan method relative to control
[23] = biological target: Receptor tyrosine-protein kinase erbB-4 (Homo sapiens) (UniProt Q15303); assay: Binding affinity to wild-type human partial length ERBB4 (L690 to K994 residues) expressed in bacterial expression system assessed as residual binding level at 10 uM by Kinomescan method relative to control
[24] = biological target: cGMP-dependent protein kinase 1 (Homo sapiens) (UniProt Q13976); assay: Binding affinity to wild-type human partial length PRKG1 (L339 to F686 residues) expressed in bacterial expression system assessed as residual binding level at 10 uM by Kinomescan method relative to control

Chain of Mitogen-activated protein kinase kinase kinase 20 (Homo sapiens) (Q9NYL2 2-800 limits assumed): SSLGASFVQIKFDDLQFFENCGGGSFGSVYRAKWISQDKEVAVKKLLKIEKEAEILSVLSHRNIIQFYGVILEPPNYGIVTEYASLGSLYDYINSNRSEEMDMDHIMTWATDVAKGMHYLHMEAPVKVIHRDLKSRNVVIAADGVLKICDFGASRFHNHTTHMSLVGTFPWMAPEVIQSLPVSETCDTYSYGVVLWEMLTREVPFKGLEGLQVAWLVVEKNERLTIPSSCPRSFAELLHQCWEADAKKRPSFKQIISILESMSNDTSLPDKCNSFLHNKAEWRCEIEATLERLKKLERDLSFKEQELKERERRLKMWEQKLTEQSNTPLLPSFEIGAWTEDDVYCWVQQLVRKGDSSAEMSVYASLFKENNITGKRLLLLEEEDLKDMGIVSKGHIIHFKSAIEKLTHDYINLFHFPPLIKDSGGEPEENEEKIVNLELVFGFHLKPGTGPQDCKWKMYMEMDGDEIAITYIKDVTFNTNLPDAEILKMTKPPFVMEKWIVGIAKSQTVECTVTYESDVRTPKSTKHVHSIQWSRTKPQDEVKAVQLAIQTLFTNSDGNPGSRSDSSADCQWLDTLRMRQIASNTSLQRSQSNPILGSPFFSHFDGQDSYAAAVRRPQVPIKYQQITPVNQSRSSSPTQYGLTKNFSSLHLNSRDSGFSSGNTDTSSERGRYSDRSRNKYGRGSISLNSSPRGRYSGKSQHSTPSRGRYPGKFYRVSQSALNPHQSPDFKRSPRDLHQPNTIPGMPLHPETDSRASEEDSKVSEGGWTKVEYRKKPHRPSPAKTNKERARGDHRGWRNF
Chain of Leucine-rich repeat serine/threonine-protein kinase 2 (Homo sapiens) (Q5S007 whole entry, the tested form may be a part): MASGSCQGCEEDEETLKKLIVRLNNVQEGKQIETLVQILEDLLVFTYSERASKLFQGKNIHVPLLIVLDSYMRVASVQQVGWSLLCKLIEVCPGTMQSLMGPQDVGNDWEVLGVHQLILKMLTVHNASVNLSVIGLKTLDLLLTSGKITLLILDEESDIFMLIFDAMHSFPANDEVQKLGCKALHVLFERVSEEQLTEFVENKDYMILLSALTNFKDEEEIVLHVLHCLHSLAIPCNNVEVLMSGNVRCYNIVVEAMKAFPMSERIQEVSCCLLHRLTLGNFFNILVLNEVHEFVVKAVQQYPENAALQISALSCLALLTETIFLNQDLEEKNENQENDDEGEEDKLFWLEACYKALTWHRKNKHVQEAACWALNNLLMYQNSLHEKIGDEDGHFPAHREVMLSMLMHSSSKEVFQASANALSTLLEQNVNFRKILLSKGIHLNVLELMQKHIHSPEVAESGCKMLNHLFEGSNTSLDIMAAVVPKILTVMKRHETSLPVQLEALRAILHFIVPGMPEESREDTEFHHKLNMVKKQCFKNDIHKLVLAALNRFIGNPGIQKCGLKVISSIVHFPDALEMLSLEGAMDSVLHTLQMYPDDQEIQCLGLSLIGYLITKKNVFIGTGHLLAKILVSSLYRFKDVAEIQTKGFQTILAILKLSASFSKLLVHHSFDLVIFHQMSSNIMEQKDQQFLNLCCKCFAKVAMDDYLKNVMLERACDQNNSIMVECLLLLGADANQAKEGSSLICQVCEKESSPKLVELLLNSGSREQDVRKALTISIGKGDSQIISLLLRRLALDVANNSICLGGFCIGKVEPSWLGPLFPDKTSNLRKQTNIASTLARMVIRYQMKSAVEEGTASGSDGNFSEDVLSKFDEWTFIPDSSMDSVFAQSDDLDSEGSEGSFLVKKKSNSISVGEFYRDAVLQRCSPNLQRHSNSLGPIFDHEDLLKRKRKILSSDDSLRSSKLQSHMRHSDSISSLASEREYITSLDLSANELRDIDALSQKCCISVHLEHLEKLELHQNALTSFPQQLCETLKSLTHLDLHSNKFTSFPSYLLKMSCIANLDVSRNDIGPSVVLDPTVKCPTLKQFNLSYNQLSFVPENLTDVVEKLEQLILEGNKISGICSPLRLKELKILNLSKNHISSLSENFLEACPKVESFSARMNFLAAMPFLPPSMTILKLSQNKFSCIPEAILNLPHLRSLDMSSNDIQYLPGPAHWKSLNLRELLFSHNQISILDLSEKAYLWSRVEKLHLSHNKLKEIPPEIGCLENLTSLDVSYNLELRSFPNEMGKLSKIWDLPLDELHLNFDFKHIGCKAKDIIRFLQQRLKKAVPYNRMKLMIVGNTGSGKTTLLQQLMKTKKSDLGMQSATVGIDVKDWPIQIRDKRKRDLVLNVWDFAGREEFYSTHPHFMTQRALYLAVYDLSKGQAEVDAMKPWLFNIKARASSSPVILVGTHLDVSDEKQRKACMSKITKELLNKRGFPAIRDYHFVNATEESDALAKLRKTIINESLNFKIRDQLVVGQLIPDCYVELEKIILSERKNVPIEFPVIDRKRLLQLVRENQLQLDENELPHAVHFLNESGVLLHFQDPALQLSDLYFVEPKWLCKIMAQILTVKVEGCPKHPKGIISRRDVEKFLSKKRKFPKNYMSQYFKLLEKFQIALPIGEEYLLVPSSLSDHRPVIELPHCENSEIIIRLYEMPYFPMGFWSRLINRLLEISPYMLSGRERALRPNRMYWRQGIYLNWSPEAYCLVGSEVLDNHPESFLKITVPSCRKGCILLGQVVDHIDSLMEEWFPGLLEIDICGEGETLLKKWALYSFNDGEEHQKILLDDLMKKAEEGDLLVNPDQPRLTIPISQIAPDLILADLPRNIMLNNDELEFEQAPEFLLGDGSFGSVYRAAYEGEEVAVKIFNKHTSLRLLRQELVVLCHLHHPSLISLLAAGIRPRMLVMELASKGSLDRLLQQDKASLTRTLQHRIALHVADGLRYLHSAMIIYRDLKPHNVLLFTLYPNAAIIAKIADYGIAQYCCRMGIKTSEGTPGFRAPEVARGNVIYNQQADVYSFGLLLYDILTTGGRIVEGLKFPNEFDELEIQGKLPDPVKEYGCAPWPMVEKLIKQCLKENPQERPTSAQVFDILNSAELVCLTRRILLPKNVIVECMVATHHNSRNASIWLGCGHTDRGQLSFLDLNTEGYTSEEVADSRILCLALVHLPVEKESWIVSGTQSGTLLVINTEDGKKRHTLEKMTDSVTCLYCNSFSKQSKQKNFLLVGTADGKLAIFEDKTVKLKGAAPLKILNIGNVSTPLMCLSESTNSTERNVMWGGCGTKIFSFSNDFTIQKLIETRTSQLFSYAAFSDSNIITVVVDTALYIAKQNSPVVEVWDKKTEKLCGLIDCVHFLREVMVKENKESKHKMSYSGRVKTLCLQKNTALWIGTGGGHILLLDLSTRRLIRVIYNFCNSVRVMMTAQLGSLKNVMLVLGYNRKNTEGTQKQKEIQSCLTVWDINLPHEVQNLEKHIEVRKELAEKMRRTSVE
Chain of Serine/threonine-protein kinase Nek10 (Homo sapiens) (Q6ZWH5 whole entry, the tested form may be a part): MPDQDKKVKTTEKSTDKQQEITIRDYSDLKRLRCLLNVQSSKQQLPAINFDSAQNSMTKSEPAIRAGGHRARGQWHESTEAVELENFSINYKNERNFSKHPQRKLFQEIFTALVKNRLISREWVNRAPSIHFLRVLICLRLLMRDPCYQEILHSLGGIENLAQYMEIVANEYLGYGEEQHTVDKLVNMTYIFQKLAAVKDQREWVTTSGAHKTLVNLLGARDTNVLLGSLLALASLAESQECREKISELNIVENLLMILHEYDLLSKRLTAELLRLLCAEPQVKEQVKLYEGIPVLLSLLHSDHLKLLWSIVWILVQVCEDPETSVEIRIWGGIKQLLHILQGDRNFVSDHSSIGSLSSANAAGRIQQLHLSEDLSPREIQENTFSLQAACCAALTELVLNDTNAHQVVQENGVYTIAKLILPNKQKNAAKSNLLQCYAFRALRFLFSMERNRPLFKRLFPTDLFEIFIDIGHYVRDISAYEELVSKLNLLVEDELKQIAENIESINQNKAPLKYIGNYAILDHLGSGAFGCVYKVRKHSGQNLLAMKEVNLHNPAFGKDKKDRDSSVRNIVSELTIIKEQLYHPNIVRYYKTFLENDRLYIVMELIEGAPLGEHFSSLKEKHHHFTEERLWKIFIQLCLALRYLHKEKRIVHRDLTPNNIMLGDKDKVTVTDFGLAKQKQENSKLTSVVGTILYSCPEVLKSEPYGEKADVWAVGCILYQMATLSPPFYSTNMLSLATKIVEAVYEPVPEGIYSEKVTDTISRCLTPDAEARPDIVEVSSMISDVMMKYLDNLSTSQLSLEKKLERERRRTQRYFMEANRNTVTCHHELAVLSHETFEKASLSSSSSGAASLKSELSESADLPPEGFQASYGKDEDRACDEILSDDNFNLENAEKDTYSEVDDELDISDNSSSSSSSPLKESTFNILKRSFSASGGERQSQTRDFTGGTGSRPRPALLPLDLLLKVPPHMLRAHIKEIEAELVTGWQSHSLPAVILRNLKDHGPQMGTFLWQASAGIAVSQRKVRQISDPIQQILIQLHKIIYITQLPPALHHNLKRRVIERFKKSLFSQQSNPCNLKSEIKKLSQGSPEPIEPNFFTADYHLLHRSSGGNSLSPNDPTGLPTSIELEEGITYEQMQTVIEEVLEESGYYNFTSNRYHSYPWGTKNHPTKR
Chain of Rhodopsin kinase GRK1 (Homo sapiens) (Q15835 whole entry, the tested form may be a part): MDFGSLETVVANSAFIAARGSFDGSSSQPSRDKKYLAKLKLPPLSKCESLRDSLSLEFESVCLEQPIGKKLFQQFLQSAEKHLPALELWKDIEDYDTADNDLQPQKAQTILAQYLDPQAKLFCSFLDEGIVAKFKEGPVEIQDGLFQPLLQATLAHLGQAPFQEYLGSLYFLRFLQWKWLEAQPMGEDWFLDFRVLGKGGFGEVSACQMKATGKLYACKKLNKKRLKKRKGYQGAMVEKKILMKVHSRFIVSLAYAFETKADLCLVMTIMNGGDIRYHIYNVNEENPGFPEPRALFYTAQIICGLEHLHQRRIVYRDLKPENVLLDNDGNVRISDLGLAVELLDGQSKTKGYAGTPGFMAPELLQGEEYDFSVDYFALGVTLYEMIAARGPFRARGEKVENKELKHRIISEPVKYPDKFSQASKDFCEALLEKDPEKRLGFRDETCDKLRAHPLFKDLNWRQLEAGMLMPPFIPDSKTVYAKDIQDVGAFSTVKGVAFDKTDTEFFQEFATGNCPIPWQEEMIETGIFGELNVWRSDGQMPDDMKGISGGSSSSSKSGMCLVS

O=C(Nc1cc(-c2cn(CCNc3c4c(nc5ccccc35)CCCC4)nn2)ccn1)Nc1cccc2c1C1CCCCN1C2=O (racemic)
Activity [1]: 0.95% | Activity [2]: 92% | Activity [3]: 60% | Activity [4]: 0.04% | Activity [5]: 100% | Activity [6]: 100% | Activity [7]: 84% | Activity [8]: 55% | Activity [9]: 24% | Activity [10]: 62% | Activity [11]: 97% | Activity [12]: 3.3% | Activity [13]: 40% | Activity [14]: 57% | Activity [15]: 100% | Activity [16]: 0.61% | Activity [17]: 13% | Activity [18]: 99% | Activity [19]: 65% | Activity [20]: 38% | Activity [21]: 2.5% | Activity [22]: 31% | Activity [23]: 87% | Activity [24]: 92%

— ChEMBL document CHEMBL4390652, “Design, biological evaluation and X-ray crystallography of nanomolar multifunctional ligands targeting simultaneously acetylcholinesterase and glycogen synthase kinase-3” (Eur J Med Chem, 2019)
